≈ marks a conversion by molar mass, not a printed value. Calls of active or inactive are those of the source. The rule behind the calls is not given here.
How the values were obtained:
Plasmodium falciparum [1] = assay: Antimalarial activity as growth inhibition of Plasmodium falciparum K1 by [3H]hypoxanthine uptake; assay type: functional, organism-based
BC1 = assay: Cytotoxicity against human BC1 cells at 20 ug/mL; assay type: functional, cell-based
KB = assay: Cytotoxicity against human KB cells at 20 ug/mL; assay type: functional, cell-based
Candida albicans = assay: Antifungal activity against Candida albicans by colorimetric method; assay type: functional, organism-based
Plasmodium falciparum [2] = assay: Antimalarial activity as growth inhibition of Plasmodium falciparum K1 at 20 ug/mL by [3H]hypoxanthine uptake; assay type: functional, organism-based

Structure (SMILES)	IC50 (Plasmodium falciparum [1])	Activity (BC1)	Activity (KB)	IC50 (Candida albicans)	Activity (Plasmodium falciparum [2])
C[C@@H]1CC[C@H]2[C@@H](C)C(=O)O[C@@H]3O[C@@]4(C)CC[C@@H]1[C@]32OO4 [ARTEMISININ]	0.001 µg/mL (≈ 0.00354 µM)				
C[C@@H]1C[C@@H](O)[C@@H](O)/C=C/[C@@H]2O[C@@H]2C(=O)O1 [MULTIPLOLIDE A]		inactive	inactive	7 µg/mL (≈ 32.7 µM)	inactive
C/C=C/C(=O)O[C@@H]1C[C@@H](C)OC(=O)C2OC2/C=C/[C@@H]1O (stereo not given in full) [MULTIPLOLIDE B]		inactive	inactive	2 µg/mL (≈ 7.08 µM)	inactive
C[C@@H]1[C@H](O)[C@@H](C)/C=C/C=C/C=C/C=C/C=C/C=C/C=C/[C@H](O[C@@H]2O[C@H](C)[C@@H](O)[C@H](N)[C@@H]2O)C[C@@H]2O[C@](O)(C[C@@H](O)C[C@@H](O)[C@H](O)CC[C@@H](O)C[C@@H](O)CC(=O)O[C@H]1C)C[C@H](O)[C@H]2C(=O)O [AMPHOTERICIN B]				0.01 µg/mL (≈ 0.0108 µM)	

From ChEMBL document CHEMBL1155734, “Multiplolides A and B, new antifungal 10-membered lactones from Xylaria multiplex” (J Nat Prod, 2001)
